For this assay, the system named is mouse red blood cells. In words: In vitro red blood cell-based assay (oxygen equilibrium curve, Softron analyzer). The settings on record: final effector concentration 2 mM, mean ± SD; for P50/P50C: P50C = control with 1% DMSO; for P50: 1% DMSO; for P50 / ∆P50: mouse red blood cells; for ∆P50: ∆P50 = P50 − P50C. The text has this:
In the first stage of our research, three series of analogues were designed and synthesized to explore refinement of the hydrophobic parts of 19f, 19m, 24a and 24b; hinge areas of 18g, 19b and 19y; and tail regions of 15c, 15d and 16c, respectively. We used the Softron Analyzer to evaluate the effect of these compounds on the half-blood oxygen saturation(P50) value of red blood cells. The most promising phenoxyaromatic acid compound, efaproxiral, was used as a positive control. […] The results reminded us that the modification of the hydrophobic part or linker extension is beneficial to improve an allosteric effect.
Eight-week-old female C57BL6J mice were purchased from Beijing Vital River Laboratory Animal Technology Co., Ltd. A total of 540 μL mouse blood was added into the 1.5 mL centrifuge tube, followed by adding 60 μL 3.8% sodium citrate. The mixture was then centrifuged at 1500 rpm for 10 min, the supernatant was carefully aspirated, and the cells were washed three times with PBS solution. After mixing packed red blood cells with Alsever’s solution in a ratio of 1:1, a blood gas analyzer (RADIOMETER ABL 90) was used to analyze the red blood cell density and hemoglobin concentration.
All of the compounds were prepared as 200 mM stock solutions in DMSO. Oxygen equilibrium measurements were performed with the Softron analyzer (Softron Medical Products, Beijing, China) using mouse red blood cells. The samples were prepared by adding 3 mg hemoglobin equivalent of red blood cells into 3.92 mL loading buffer (100 mM NaCl, 50 mM bis-Tris at pH 7.2 and 25 °C), followed by 20 μL 10% Dimethicone as a defoamer and 20 μL 20% BSA. Afterwards, 40 μL stock solution was added, and the mixture was loaded to the sample cell and fully deoxygenated by blowing into nitrogen at 37 °C for 15 min. Then, the oxygen equilibrium curve was recorded by blowing into oxygen.

Where “and” joins values, the source holds several entries; their conditions need not be identical. Equal values may be shown once.

With `CC(C)(Oc1ccc(CC(=O)Nc2ccc(-c3ccccc3)cc2)cc1)C(=O)O` [19o, 2-(4-(2-([1,1′-biphenyl]-4-ylamino)-2-oxoethyl)phenoxy)-2-methylpropanoic acid], the P50/P50C is on record as 1.81 ± 0.04, the P50 was determined as 74.56 ± 1.75 mmHg and the “∆P50” value was determined as 33.37 mmHg. For the same molecule, the “∆P50” value (listed as 190) stood at 33.37 ± 1.75 mmHg.
Regarding `CC(C)(Oc1ccc(CC(=O)Nc2cccc(-c3ccccc3)c2)cc1)C(=O)O` [19p, 2-(4-(2-([1,1′-biphenyl]-3-ylamino)-2-oxoethyl)phenoxy)-2-methylpropanoic acid], the P50/P50C is reported as 1.87 ± 0.02; the P50 stood at 77.10 ± 0.66 mmHg; the “∆P50” value was 35.91 mmHg and 35.91 ± 0.66 mmHg.
`CC(C)(Oc1ccc(CC(=O)Nc2ccc(C#N)cc2)cc1)C(=O)O` [19q, 2-(4-(2-((4-cyanophenyl)amino)-2-oxoethyl)phenoxy)-2-methylpropanoic acid]: the P50/P50C is given as 1.32 ± 0.30, the P50 amounted to 59.60 ± 13.58 mmHg and the “∆P50” value stood at 14.36 ± 13.58 mmHg.
`CCN(CC)c1ccc(NC(=O)Cc2ccc(OC(C)(C)C(=O)O)cc2)cc1` [19r, 2-(4-(2-((4-(diethylamino)phenyl)amino)-2-oxoethyl)phenoxy)-2-methylpropanoic acid]: the P50/P50C is 1.57 ± 0.02, the P50 is 65.81 ± 6.64 mmHg and the “∆P50” value is on record as 23.97 ± 1.82 mmHg.
Consider `COc1ccc(NC(=O)Cc2ccc(OC(C)(C)C(=O)O)cc2)cc1` [19s, 2-(4-(2-((4-methoxyphenyl)amino)-2-oxoethyl)phenoxy)-2-methylpropanoic acid], for which the P50/P50C turned out to be 1.45 ± 0.01, the P50 was 71.87 ± 0.64 mmHg and the “∆P50” value was 22.29 ± 0.64 mmHg.
As to `CC(C)(Oc1ccc(/C=C/C(=O)Nc2cc(Cl)cc(Br)c2)cc1)C(=O)O` [19w, (E)-2-(4-(3-((3-bromo-5-chlorophenyl)amino)-3-oxoprop-1-en-1-yl)phenoxy)-2-methylpropanoic acid], the P50/P50C stood at 1.50 ± 0.08, the P50 is 56.76 ± 2.93 mmHg and the “∆P50” value came out at 18.85 ± 2.93 mmHg.
The like results for `C=CCN(CC=C)C(=O)Cc1ccc(OC(C)(C)C(=O)O)cc1` [24a, 2-(4-(2-(diallylamino)-2-oxoethyl)phenoxy)-2-methylpropanoic acid] were, in that order, 1.25 ± 0.21, 55.80 ± 18.99 mmHg and 11.80 ± 11.11 mmHg.
As for `CC1Cc2ccccc2N1C(=O)Cc1ccc(OC(C)(C)C(=O)O)cc1` (stereo not drawn) [24b, 2-methyl-2-(4-(2-(2-methylindolin-1-yl)-2-oxoethyl)phenoxy)propanoic acid], the P50/P50C is 1.46 ± 0.12, the P50 came out at 66.26 ± 5.30 mmHg and the “∆P50” value turned out to be 21.02 ± 5.30 mmHg.
Turning to `CC(C)(Oc1ccc(CC(=O)Nc2ccc3c(c2)OCO3)cc1)C(=O)O` [24c, 2-(4-(2-(benzo[d][1,3]dioxol-5-ylamino)-2-oxoethyl)phenoxy)-2-methylpropanoic acid], the P50/P50C worked out at 1.58 ± 0.01, the P50 is on record as 69.62 ± 12.16 mmHg and the “∆P50” value came to 25.61 ± 4.27 mmHg.
Turning to `CC(C)(Oc1ccc(CC(=O)Nc2ccc3ccccc3c2)cc1)C(=O)O` [24d, 2-methyl-2-(4-(2-(naphthalen-2-ylamino)-2-oxoethyl)phenoxy)propanoic acid], the P50/P50C was found to be 1.93 ± 0.01; the P50 worked out at 79.50 ± 0.47 mmHg; the “∆P50” value was 38.31 mmHg and 38.31 ± 0.47 mmHg.
Turning to `CC(C)(Oc1ccc(CC(=O)NC(c2ccccc2)c2ccccc2)cc1)C(=O)O` [24e, 2-(4-(2-(benzhydrylamino)-2-oxoethyl)phenoxy)-2-methylpropanoic acid], the P50/P50C was 1.33 ± 0.24, the P50 came to 59.61 ± 20.96 mmHg and the “∆P50” value amounted to 15.61 ± 13.07 mmHg.
On the same counts, the results for `CC(C)(Oc1ccc(CC(=O)N(Cc2ccccc2)Cc2ccccc2)cc1)C(=O)O` [24f, 2-(4-(2-(dibenzylamino)-2-oxoethyl)phenoxy)-2-methylpropanoic acid] are 1.23 ± 0.12, 54.51 ± 14.91 mmHg and 10.51 ± 7.02 mmHg.
With `CCCCCCNC(=O)Cc1ccc(OC(C)(C)C(=O)O)cc1` [24g, 2-(4-(2-(hexylamino)-2-oxoethyl)phenoxy)-2-methylpropanoic acid], the P50/P50C worked out at 1.10 ± 0.04, the P50 came out at 46.17 ± 7.11 mmHg and the “∆P50” value is on record as 4.34 ± 2.30 mmHg.
On the same counts, the results for `CNC(=O)Cc1ccc(OC(C)(C)C(=O)O)cc1` [24h, 2-methyl-2-(4-(2-(methylamino)-2-oxoethyl)phenoxy)propanoic acid] are 1.40 ± 0.11, 58.11 ± 1.93 mmHg and 16.27 ± 2.88 mmHg.
Turning to “(E)-2-(4-(3-((3-iodophenyl)amino)-3-oxoprop-1-en-1-yl)phenoxy)-2-methylpropanoic acid [19v]”, the P50/P50C was determined as 1.71 ± 0.05, the P50 was 77.49 ± 2.11 mmHg, the “K (Hill coefficient of the oxygen dissociation curve at 50% saturation)” value was 2.23 ± 0.28 and the “∆P50” value is on record as 32.25 ± 2.11 mmHg.
Take “(E)-2-(4-(3-((4-bromophenyl)amino)-3-oxoprop-1-en-1-yl)phenoxy)-2-methylpropanoic acid [19u]”: the P50/P50C was 1.67 ± 0.09, the P50 was found to be 63.15 ± 3.48 mmHg, the “K (Hill coefficient of the oxygen dissociation curve at 50% saturation)” value worked out at 1.96 ± 0.17 and the “∆P50” value is on record as 25.24 ± 3.48 mmHg.
